Article PMC11301932 (Fluids and Barriers of the CNS, 2024)
Read-outs that look alike come from different tables or passages of the source. Blank lines part the entries; values can stand above or below the compound they belong to.

What was measured:
[1] = Plasma concentration at the end of the 3 h i.p. infusion; format: in vivo; conditions: male, FVB, mouse, ip
Brain penetration = conditions: WT mice, ABC transporter mediated efflux present, no inhibitor
[2] = cited from earlier work
Abcb1a/b = Abcb1a/b (Mus musculus, UniProt P21447); assay: Inhibition of efflux of substrate drugs from the brain of Abcg2 KO mice; format: in vivo
Abcg2 = biological target: T1, Abcg2 (Mus musculus, UniProt Q7TMS5); assay: Inhibition of efflux of substrate drugs from the brain of Abcb1a/b KO mice; format: in vivo
T1 sequence (Q7TMS5 1-657): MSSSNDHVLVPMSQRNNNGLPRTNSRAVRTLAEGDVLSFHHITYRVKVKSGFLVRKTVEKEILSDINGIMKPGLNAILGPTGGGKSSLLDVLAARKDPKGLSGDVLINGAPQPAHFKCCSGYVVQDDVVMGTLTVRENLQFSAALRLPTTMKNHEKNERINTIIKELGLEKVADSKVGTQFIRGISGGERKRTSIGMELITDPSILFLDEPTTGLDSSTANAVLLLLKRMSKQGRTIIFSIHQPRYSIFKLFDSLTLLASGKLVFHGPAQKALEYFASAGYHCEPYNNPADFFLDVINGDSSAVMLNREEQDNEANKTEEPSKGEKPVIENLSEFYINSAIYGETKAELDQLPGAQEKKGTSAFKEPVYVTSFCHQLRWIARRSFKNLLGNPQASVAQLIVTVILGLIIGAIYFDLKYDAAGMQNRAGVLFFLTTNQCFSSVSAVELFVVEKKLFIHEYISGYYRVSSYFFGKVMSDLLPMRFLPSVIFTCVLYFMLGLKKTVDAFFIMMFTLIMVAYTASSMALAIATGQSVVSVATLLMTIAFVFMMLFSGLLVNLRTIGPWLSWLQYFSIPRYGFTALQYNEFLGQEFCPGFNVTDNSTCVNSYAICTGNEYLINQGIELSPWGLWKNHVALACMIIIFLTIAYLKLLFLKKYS

[3] = Rapid equilibrium dialysis; format: in vitro ADME
[4] = cited from earlier work; remark: listed apart in the source
[5] = standard procedure using buffer in the receiver compartment; ref [24], [33]; cited from earlier work
ABCB1 = conditions: humans, cited from earlier work
human ABCG2/BCRP = biological target: T2, human ABCG2/BCRP (Homo sapiens, UniProt Q9UNQ0); assay: Drug accumulation assay in MDCKII-BCRP cells with 8-drug mixture plus inhibitor; conditions: in vitro, MDCKII-BCRP vs MDCK-MDR1
T2 sequence (Q9UNQ0 1-655): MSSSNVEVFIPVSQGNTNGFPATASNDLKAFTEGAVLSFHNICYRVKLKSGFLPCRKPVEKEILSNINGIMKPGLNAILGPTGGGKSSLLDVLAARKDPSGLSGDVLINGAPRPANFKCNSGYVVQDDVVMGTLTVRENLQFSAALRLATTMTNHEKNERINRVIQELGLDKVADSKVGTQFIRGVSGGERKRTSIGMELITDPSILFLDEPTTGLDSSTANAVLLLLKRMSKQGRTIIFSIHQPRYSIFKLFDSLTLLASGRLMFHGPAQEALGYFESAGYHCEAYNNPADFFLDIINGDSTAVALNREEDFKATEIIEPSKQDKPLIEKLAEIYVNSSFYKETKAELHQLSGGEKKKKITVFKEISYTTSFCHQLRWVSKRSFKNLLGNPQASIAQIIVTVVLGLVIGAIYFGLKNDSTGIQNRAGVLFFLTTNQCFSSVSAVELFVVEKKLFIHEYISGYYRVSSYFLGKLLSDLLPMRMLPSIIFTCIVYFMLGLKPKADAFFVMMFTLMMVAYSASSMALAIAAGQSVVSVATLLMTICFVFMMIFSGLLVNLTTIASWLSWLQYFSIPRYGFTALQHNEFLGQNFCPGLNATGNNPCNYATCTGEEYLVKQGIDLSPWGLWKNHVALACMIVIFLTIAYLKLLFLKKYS

Abcb1a/b and Abcg2 = assay: Inhibition of efflux of substrate drugs from the brain of WT mice; conditions: mouse, in vivo

Sequence of Abcb1a/b (P21447 whole entry): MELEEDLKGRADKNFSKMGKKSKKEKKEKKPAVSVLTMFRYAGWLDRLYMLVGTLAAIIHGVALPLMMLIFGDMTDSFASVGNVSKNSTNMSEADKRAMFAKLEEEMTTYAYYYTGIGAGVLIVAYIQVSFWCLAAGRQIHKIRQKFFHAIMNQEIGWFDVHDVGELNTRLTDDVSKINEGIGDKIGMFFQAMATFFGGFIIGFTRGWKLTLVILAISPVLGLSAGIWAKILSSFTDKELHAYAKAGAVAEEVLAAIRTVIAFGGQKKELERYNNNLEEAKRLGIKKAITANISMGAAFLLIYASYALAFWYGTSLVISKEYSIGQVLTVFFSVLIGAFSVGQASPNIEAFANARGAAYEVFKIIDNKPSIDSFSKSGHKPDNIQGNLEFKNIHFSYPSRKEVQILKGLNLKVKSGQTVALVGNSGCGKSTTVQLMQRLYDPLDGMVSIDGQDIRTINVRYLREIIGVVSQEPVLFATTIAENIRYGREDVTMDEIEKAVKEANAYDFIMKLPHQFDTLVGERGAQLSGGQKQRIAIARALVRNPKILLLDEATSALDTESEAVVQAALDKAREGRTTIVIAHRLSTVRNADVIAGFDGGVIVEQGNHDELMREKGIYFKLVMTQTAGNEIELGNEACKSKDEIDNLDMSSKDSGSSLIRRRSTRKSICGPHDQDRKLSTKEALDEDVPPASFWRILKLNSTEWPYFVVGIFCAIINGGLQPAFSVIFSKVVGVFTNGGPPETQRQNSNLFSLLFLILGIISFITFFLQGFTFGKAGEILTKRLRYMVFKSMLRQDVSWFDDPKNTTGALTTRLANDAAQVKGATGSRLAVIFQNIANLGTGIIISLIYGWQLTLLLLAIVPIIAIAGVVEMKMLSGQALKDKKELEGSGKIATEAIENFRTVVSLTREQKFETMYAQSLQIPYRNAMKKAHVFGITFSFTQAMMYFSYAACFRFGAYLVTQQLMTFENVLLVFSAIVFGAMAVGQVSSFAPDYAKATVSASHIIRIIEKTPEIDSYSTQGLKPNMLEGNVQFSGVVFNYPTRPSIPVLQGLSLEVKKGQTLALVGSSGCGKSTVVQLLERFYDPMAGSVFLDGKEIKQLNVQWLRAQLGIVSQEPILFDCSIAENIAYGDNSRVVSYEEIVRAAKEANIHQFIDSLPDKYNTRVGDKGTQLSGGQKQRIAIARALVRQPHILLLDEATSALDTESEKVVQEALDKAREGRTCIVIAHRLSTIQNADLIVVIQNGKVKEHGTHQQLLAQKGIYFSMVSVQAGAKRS

Compound: CNC(=O)c1cc(Oc2ccc(NC(=O)Nc3ccc(Cl)c(C(F)(F)F)c3)cc2)ccn1 [Sorafenib]
Fold higher brain uptake in Abcg2;Abcb1a/b KO vs WT mice ([2]; LC-MS/MS on brain homogenates, ref [39]): 9.3 fold

Compound: COc1cc2c(cc1OC)CN(CCc1ccc(NC(=O)c3cccc4c(=O)c5cccc(OC)c5[nH]c34)cc1)CC2 [Elacridar, 9,10-dihydro-5-methoxy-9-oxo-N-[4-[2-(1,2,3,4-tetrahydro-6,7-dimethoxy-2-isoquinolinyl)ethyl]phenyl]-4-acridine-carboxamide]
Elacridar plasma level for maximum inhibition of efflux (Abcg2; Abcb1a/b KO mice, palbociclib, dasatinib and erlotinib (Class II)): above 1200 nM | Plasma level at which inhibitor inhibits its own ABCG2-mediated efflux (Abcg2; brain efflux in mice): about 1200 nM | Proposed target plasma level to enhance brain entry (Abcb1a/b and Abcg2): 1200 nM and about 700 ng/ml | Free fraction [5]: below 0.01

Compound: COc1ccc(CCN(C)CCCC(C#N)(c2ccc(OC)c(OC)c2)C(C)C)cc1OC (stereo not shown) [Verapamil]
concentration at 3 h [1]: 100 to 250 nM

Compound: CNC(=O)c1cc(Oc2ccc(N[11C](=O)Nc3ccc(Cl)c(C(F)(F)F)c3)cc2)ccn1 [[^11C]sorafenib]
Fold higher brain uptake in Abcg2;Abcb1a/b KO vs WT mice ([2]; PET, ref [38]): 3 fold

The next lines start with results.

concentration at 3 h [1]: 100 to 250 nM
Compound: C#Cc1cccc(Nc2ncnc3cc(OCCOC)c(OCCOC)cc23)c1 [Erlotinib]

concentration at 3 h [1]: 100 to 250 nM | B/P ratio (Brain penetration): 0.02
Compound: CCCS(=O)(=O)Nc1ccc(F)c(C(=O)c2c[nH]c3ncc(-c4ccc(Cl)cc4)cc23)c1F [Vemurafenib]

Inhibitor plasma level for (near) complete inhibition of ABCB1 at the BBB (Abcb1a/b): at least 4000 nM | Plasma level above which own B/P ratio starts to increase (Abcb1a/b): above 4000 nM | Tariquidar plasma level required for near complete ABCB1 inhibition (Abcb1a/b; for loperamide and afatinib): ≥ 6 µM | Tariquidar plasma level required for near complete ABCB1 inhibition (Abcb1a/b; for verapamil and erlotinib): at least 4000 nM | Change of own B/P ratio with plasma concentration (Abcg2; Abcb1a/b KO and WT mice (Abcg2 proficient)): did not increase | concentration at 3 h ([1]; 10.5 mg/kg/h): > 6000 nM | Fraction retrieved in the receiver chamber ([3]; RED, undiluted human or mouse plasma to human plasma, after 24 h of incubation): 2–3% | Fold higher IC50 for ABCG2 than for ABCB1 (human ABCG2/BCRP): about 10 fold
Compound: COc1cc2c(cc1OC)CN(CCc1ccc(NC(=O)c3cc(OC)c(OC)cc3NC(=O)c3cnc4ccccc4c3)cc1)CC2 [Tariquidar]
Enhancement of brain accumulation of ABCG2-substrate drugs (Abcg2; Abcb1a/b KO mice): none of the ABCG2-substrate drugs exhibit significant enhancement | Plasma protein binding, mouse versus human plasma ([3]; RED competition setup): very high but similar in mouse and human plasma | Plasma level at the end of the infusion ([4]; humans, tariquidar 4–8 mg/kg i.v., 1.5–2.5 h, ref [19], [35]): 3000 to 4000 nM | Oral bioavailability ([4]; oral dosing in humans, ref [20]): very low | Free fraction [5]: below 0.01 | Fold increase of VT, brain of [11C]verapamil (ABCB1; tariquidar 4–8 mg/kg, infusion 1.5–2.5 h, ref [19], [35]): 3.5 fold | Fold increased brain radioactivity of [11C]verapamil (ABCB1; tariquidar 2 mg/kg, 30 min i.v. infusion, ref [41]): ≤ 2 fold
